From publication PMC7725003, “Systematically Studying the Optimal Amino Acid Distribution Patterns of the Amphiphilic Structure by Using the Ultrashort Amphiphiles” (Frontiers in Microbiology, 2020)
Read-outs that look alike come from different tables or passages of the source. Where no end group is shown, it is not given here.

Columns and labels:
S. typhimurium 14028 = assay type: cell-based, Salmonella typhimurium; details: 14028, 24 h
How it was run: (§1)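 MIC = lowest peptide concentration giving 95% growth inhibition (A492) after 24 h at 37°C in MHB, inoculum 0.5–1 × 10^6 CFU mL^–1. Peptides serially diluted in 0.2% BSA. MBC = lowest concentration killing >99.9% of cells on overnight agar plating.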

S. typhimurium 7731 = assay type: cell-based, Salmonella typhimurium; details: 7731, 24 h
How it was run: as §1

S. pullorum 7913 = assay type: cell-based, Salmonella pullorum; details: 7913, 24 h
How it was run: as §1

P. aeruginosa 27853 = assay type: cell-based, Pseudomonas aeruginosa; details: 27853, 24 h
How it was run: as §1

Gram-negative bacteria = details: for TI, Gram-negative bacteria: therapeutic index TI = MHC/GM MIC
How it was run: (§2)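 Broth microdilution adapted from NCCLS: mid-log bacteria diluted in MHB to 0.5–1 × 10^6 CFU mL^–1, mixed with peptides serially diluted in 0.2% BSA. After 24 h at 37°C, MIC taken as the lowest concentration inhibiting 95% of growth by absorbance at 492 nm. Assays repeated more than 3 times.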

Gram-positive bacteria = details: for TI, Gram-positive bacteria: therapeutic index TI = MHC/GM MIC
How it was run: as §2

S. aureus 25923 = assay type: cell-based, Staphylococcus aureus; details: 25923, 24 h
How it was run: as §1

S. aureus 29213 [1] = assay type: cell-based, Staphylococcus aureus; details: 29213, 24 h
How it was run: as §1

S. epidermidis 12228 = assay type: cell-based, Staphylococcus epidermidis; details: 12228, 24 h
How it was run: as §1

MRSA 43300 = assay type: cell-based, methicillin-resistant S. aureus
How it was run: as §1

[2] = system: Listeria monocytogenes CGMCC 1.1075; assay type: cell-based; details: CGMCC 1.1075, 24 h
How it was run: as §1

E. coli ATCC 25922 = assay: Salt sensitivity assay (MIC); assay type: cell-based, Escherichia coli; details: for MIC, FeCl3: 4 μM FeCl3; for MIC, NH4Cl: 6 μM NH4Cl; for MIC, ZnCl2: 8 μM ZnCl2; for MIC, MgCl2: 1 mM MgCl2; for MIC, CaCl2: 2 mM CaCl2; for MIC, KCl: 4.5 mM KCl; for MIC, NaCl: 150 mM NaCl; for MIC, Control: no added salt, three independent assays
How it was run: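 The salt sensitivity of peptides was tested against E. coli ATCC 25922 using a modified NCCLS broth microdilution MIC method. Mid-log bacteria were diluted in MHB to 0.5–1 × 10^6 CFU mL^–1 and mixed in equal volumes with peptides serially diluted in 0.2% BSA in 96-well plates. Physiological salt was added where specified, and the assay was done three independent times.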

S. aureus 29213 [3] = assay: Salt sensitivity assay (MIC); assay type: cell-based, Staphylococcus aureus; details: for MIC, FeCl3: 4 μM FeCl3; for MIC, NH4Cl: 6 μM NH4Cl; for MIC, ZnCl2: 8 μM ZnCl2; for MIC, MgCl2: 1 mM MgCl2; for MIC, CaCl2: 2 mM CaCl2; for MIC, KCl: 4.5 mM KCl; for MIC, NaCl: 150 mM NaCl; for MIC, Control: no added salt, three independent assays
How it was run: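 MICs determined by broth microdilution in MHB with 0.5–1 × 10^6 CFU/mL, peptides serially diluted in 0.2% BSA, 24 h at 37°C. Medium supplemented with physiological salts (150 mM NaCl, 4.5 mM KCl, 6 μM NH4Cl, 8 μM ZnCl2, 1 mM MgCl2, 2mM CaCl2, 4 μM FeCl3). MIC = lowest concentration inhibiting 95% growth (A492).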

E. coli 25922 = assay: Time-kill kinetics; assay type: cell-based, Escherichia coli; details: 1 × MIC concentration (Figure 5 legend: 1× MBC); mean of three independent experiments
Source text: The kinetics of the sterilization activity of the peptide was further evaluated. […] The results of the kinetic were the mean values of three independent experiments, and each independent experiment contained three technical replicates.

[4] = LPS binding assay (BODIPY-TR-cadaverine displacement); design: species or system Escherichia coli; details: 1 h 37°C
Protocol: A BODIPY-TR-cadaverine (BC Sigma, United States) displacement assay was used to determine the abilities of the peptides to bind LPS ([Ma et al., 2015]); in this assay, a probe bound to cell-free LPS was self-quenched but fluoresced upon release into solution. The LPS from E. coli O111:B4 (50 μg/mL) was incubated with a BODIPY-TR-cadaverine (5 μg/mL) in Tris buffer (50 mM, pH 7.4) for 4 h. Subsequently, equal volumes of the LPS-probe solution and the peptides (1–64 μM) were incubated in a sterile 96-well black plate for 1 h at 37°C, and the fluorescence was measured on a spectrofluorophotometer (the Infinite 200 pro, Tecan, China) at excitation and emission wavelengths of 580 nm and 620 nm, respectively. Each test was performed independently in triplicate. The values were converted to %ΔF (AU) using the following equation:
where Fobs is the observed fluorescence at a given peptide concentration, F0 is the initial fluorescence of BC with LPS in the absence of peptides, and F100 is the BC fluorescence with LPS cells upon the addition of 10 μg mL^–1 polymyxin B, a prototype LPS binder serving as the positive control.

[5] = geometric mean of MICs (Table 3)

Row | Substance | MBC (S. typhimurium 14028) | MIC (S. typhimurium 14028) | MBC (S. typhimurium 7731) | MIC (S. typhimurium 7731) | MBC (S. pullorum 7913) | MIC (S. pullorum 7913) | MBC (P. aeruginosa 27853) | MIC (P. aeruginosa 27853) | TI, Gram-negative bacteria (Gram-negative bacteria) | TI, Gram-positive bacteria (Gram-positive bacteria) | MBC (S. aureus 25923) | MIC (S. aureus 25923) | MBC (S. aureus 29213 [1]) | MIC (S. aureus 29213 [1]) | MBC (S. epidermidis 12228) | MIC (S. epidermidis 12228) | MBC [2] | MIC [2] | MIC, FeCl3 (E. coli ATCC 25922) | MIC, NH4Cl (E. coli ATCC 25922) | also measured
1 | RLRLRLRLL-NH2 [L5] | 8 µM | 4 µM | 8 µM | 4 µM | 4 µM | 2 µM | 16 µM | 8 µM | 80.76 | 43.10 | 16 µM | 8 µM | 16 µM | 8 µM | 16 µM | 8 µM | 8 µM | 4 µM | 0.5 µM | 0.5 µM | GM MIC (Gram-negative bacteria; geometric mean of MICs, 9 Gram-negative strains (Table 2)): 3.17 µM; GM MIC (Gram-positive bacteria; geometric mean of MICs, 7 Gram-positive strains (Table 2)): 5.94 µM; MIC (MRSA 43300; MHB, 24 h 37°C, 95% growth inhibition): 8 µM; MBC (MRSA 43300; value in brackets, >99.9% of cells killed): 16 µM; MIC, ZnCl2 (E. coli ATCC 25922): 0.5 µM; MIC, MgCl2 (E. coli ATCC 25922): 0.5 µM; MIC, CaCl2 (E. coli ATCC 25922): 2 µM; MIC, KCl (E. coli ATCC 25922): 0.5 µM; MIC, NaCl (E. coli ATCC 25922): 4 µM; MIC, Control (E. coli ATCC 25922): 2 µM; MIC, FeCl3 (S. aureus 29213 [3]): 8 µM; MIC, NH4Cl (S. aureus 29213 [3]): 8 µM; MIC, ZnCl2 (S. aureus 29213 [3]): 8 µM; MIC, MgCl2 (S. aureus 29213 [3]): 8 µM; MIC, CaCl2 (S. aureus 29213 [3]): 16 µM; MIC, KCl (S. aureus 29213 [3]): 8 µM; MIC, NaCl (S. aureus 29213 [3]): 64 µM; MIC, Control (S. aureus 29213 [3]): 8 µM; time to obliterate the growth of 99.99% of bacteria (E. coli 25922): ≤ 3 min; LPS binding efficiency ([4]; at 16 μM peptide): ~80%
2 | RWRWRWRWW-NH2 [W5] | 8 µM | 4 µM | 8 µM | 4 µM | 4 µM | 2 µM | 8 µM | 4 µM | 94.12 | 128.00 | 4 µM | 2 µM | 4 µM | 2 µM | 4 µM | 2 µM | 4 µM | 2 µM | 4 µM | 4 µM | GM, Gram-negative bacteria (Gram-negative bacteria; [5]): 2.72 µM; GM, Gram-positive bacteria (Gram-positive bacteria; [5]): 2.00 µM; MBC (MRSA 43300; 43300, 24 h): 4 µM; MIC (MRSA 43300; 43300, 24 h): 2 µM; MIC, ZnCl2 (E. coli ATCC 25922): 4 µM; MIC, MgCl2 (E. coli ATCC 25922): 2 µM; MIC, CaCl2 (E. coli ATCC 25922): 4 µM; MIC, KCl (E. coli ATCC 25922): 4 µM; MIC, NaCl (E. coli ATCC 25922): 4 µM; MIC, Control (E. coli ATCC 25922): 2 µM; MIC, FeCl3 (S. aureus 29213 [3]): 1 µM; MIC, NH4Cl (S. aureus 29213 [3]): 2 µM; MIC, ZnCl2 (S. aureus 29213 [3]): 2 µM; MIC, MgCl2 (S. aureus 29213 [3]): 4 µM; MIC, CaCl2 (S. aureus 29213 [3]): 2 µM; MIC, KCl (S. aureus 29213 [3]): 4 µM; MIC, NaCl (S. aureus 29213 [3]): 2 µM; MIC, Control (S. aureus 29213 [3]): 2 µM; time to obliterate the growth of 99.99% of bacteria (E. coli 25922): ≤ 0.25 min; LPS binding efficiency ([4]; at 32 μM peptide): ~80%
